The results in this text go back to patent US11319303B2 (WIGEN BIOMEDICINE TECHNOLOGY (SHANGHAI) CO., LTD., priority 2017, dated 2022).

Each structure is given as a SMILES string. Bounds are passed on as bounds.

In this experiment the target is LC3B (Homo sapiens, UniProt Q9GZQ8). The experiment is described as follows: Fluorescence Polarization (FP) Assay: displacement of FITC-labeled peptide from GST-LC3B. Conditions: Fluorescence Polarization assay; GST-LC3B 180 nM, FITC-labeled peptide 18 nM, 25° C.; read-out: IC50. It is filed as binding. The protocol: The compounds of the present invention for regulating the autophagy-related protein LC3B were tested by Fluorescence Polarization (FP) Assay.
Fluorescence Polarization (FP) Assay Test
On the technique in general: Fluorescence polarisation rises when a labelled molecule tumbles more slowly, as on binding a larger partner.
For `CNc1cccc(C2CC(=O)C(=CNCCN3CCN(CCO)CC3)C(=O)C2)c1Br` (stereo not shown) [Compound 374, 5-(2-bromo-3-(methylamino)phenyl)-2-(((2-(4-(2-hydroxyethyl)piperazin-1-yl)ethyl)amino)methylene) cyclohexane-1,3-dione], the IC50 (in general, the concentration that inhibits the measured activity by half) is below 3 µM.
The same measure for `CC(C)C(=O)N1CCN(CCNC=C2C(=O)CC(c3ccccc3)CC2=O)CC1` (stereo not shown) [Compound 211, 2-(((2-(4-isobutyrylpiperazin-1-yl)ethyl)amino)methylene)-5-phenylcyclohexane-1,3-dione]: below 3 µM; for `CS(=O)(=O)CCNC=C1C(=O)CC(c2ccccc2)CC1=O` (stereo not shown) [Compound 208, 2-(((2-(methylsulfonyl)ethyl)amino)methylene)-5-phenylcyclohexane-1,3-dione]: 15 to 100 µM.
In the case of `COC(=O)C(CCSC)NC=C1C(=O)CC(c2ccccc2)CC1=O` (stereo not shown) [Compound 127, methyl ((2,6-dioxo-4-phenylcyclo-hexylidene)methyl) methioninate] it was 15 to 100 µM.
In the case of `O=C1CC(c2ccsc2)CC(=O)C1=CO` (stereo not shown) [Compound 428, 2-(hydroxymethylene)-5-(3-thiophen)cyclohexane-1,3-dione] it was 3 to 15 µM.
`O=C1CC(c2cccc3[nH]ccc23)CC(=O)C1=CNCCN1CCN(CCO)CC1` (stereo not shown) [Compound 68, 2-(((2-(4-(2-hydroxyethyl)piperazin-1-yl)ethyl)amino)methylene)-5-(1H-indol-4-yl) cyclohexane-1,3-dione]: the IC50 was below 3 µM.
With `CSCCNC=C1C(=O)CC(c2ccccc2)CC1=O` (stereo not shown) [Compound 206, 2-(((2-(methylthio)ethyl)amino)methylene)-5-phenylcyclohexane-1,3-dione], the IC50 fell in the range of 15 to 100 µM.
The same measure for `CN(C)CCNC=C1C(=O)CC(C(=O)NCc2ccccc2)CC1=O` (stereo not shown) [Compound 359, N-benzyl-4-(((2-(dimethylamino)ethyl)amino)methylene)-3,5-dioxocyclohexane-1-carboxamide]: 15 to 100 µM; for `O=C1CC(c2ccccc2)CC(=O)C1=CNCCN1CCN(C(=O)c2ccc([N+](=O)[O-])cc2)CC1` (stereo not shown) [Compound 217, 2-(((2-(4-(4-nitrobenzoyl)piperazin-1-yl)ethyl)amino)methylene)-5-phenylcyclohexane-1,3-dione]: 3 to 15 µM; for `CCN(CC)CCNC=C1C(=O)CC(c2ccccc2)CC1=O` (stereo not shown) [Compound 120, 2-(((2-(diethylamino)ethyl)amino)methylene)-5-phenylcyclo-hexane-1,3-dione]: below 3 µM.
Consider `O=C1CC(c2ccccc2)CC(=O)C1=CNCc1ccc(Cl)cn1` (stereo not shown) [Compound 204, 2-((((5-chloropyridin-2-yl)methyl)amino)methylene)-5-phenylcyclohexane-1,3-dione], for which the IC50 was in the range of 100 to 1000 µM.
In the case of `O=C1C(=CNCCN2CCN(CCO)CC2)C(=O)C(c2ccccc2)CC1Cc1ccccc1` (stereo not shown) [Compound 101, 4-benzyl-2-(((2-(4-(2-hydroxyethyl)piperazin-1-yl)ethyl)amino)methylene)-6-phenylcyclohexane-1,3-dione] it was 15 to 100 µM; in that of `CC(O)C(NC=C1C(=O)CC(c2ccccc2)CC1=O)C(=O)O` (stereo not shown) [Compound 158, 2-(((2,6-dioxo-4-phenylcyclo-hexylidene)methyl)amino)-3-hydroxybutanoic acid], 100 to 1000 µM; in that of `CN(C)CCNC=C1C(=O)CC(c2cc(Cl)cc(Cl)c2Cl)CC1=O` (stereo not shown) [Compound 364, 2-(((2-(dimethylamino)ethyl)amino)methylene)-5-(2,3,5-trichlorophenyl) cyclohexane-1,3-dione], below 3 µM.
`CN(C)CCNC=C1C(=O)CC(c2ccc(F)cc2F)CC1=O` (stereo not shown) [Compound 301, 5-(2,4-difluorophenyl)-2-(((2-(dimethylamino)ethyl)amino)methylene) cyclohexane-1,3-dione]: the IC50 is below 3 µM.
Regarding `CN(C)C=C1C(=O)CC(Cc2ccccc2)CC1=O` (stereo not shown) [Compound 272, 5-benzyl-2-((dimethylamino)methylene) cyclohexane-1,3-dione], the IC50 lay in the range of 3 to 15 µM.
The same measure for `CCOC(=O)C1C(=O)/C(=C\NCCN2CCN(CCO)CC2)C(=O)CC1c1cccc2[nH]ccc12` (stereo not shown) [Compound 330, ethyl 3-(((2-(4-(2-hydroxyethyl)piperazin-1-yl)ethyl)amino)methylene)-6-(1H-indol-4-yl)-2,4-dioxocyclohexane-1-carboxylate]: 3 to 15 µM; for `O=C1CC(c2ccc(Cl)cc2)CC(=O)C1=CNCCN1CCN(C(=O)N2CCOCC2)CC1` (stereo not shown) [Compound 249, 5-(4-chlorophenyl)-2-(((2-(4-(morpholine-4-carbonyl)piperazin-1-yl)ethyl)amino)methylene) cyclohexane-1,3-dione]: below 3 µM; for `O=C1CC(c2ccccc2)CC(=O)C1=CNCCN1CCN(C(=O)c2ccc(Br)cc2)CC1` (stereo not shown) [Compound 220, 2-(((2-(4-(4-bromobenzoyl)piperazin-1-yl)ethyl)amino)methylene)-5-phenylcyclohexane-1,3-dione]: 3 to 15 µM.
As for `CN(C)CCNC=C1C(=O)CC(c2cc(F)ccc2Br)CC1=O` (stereo not shown) [Compound 349, 5-(2-bromo-5-fluorophenyl)-2-(((2-(dimethylamino)ethyl)amino)methylene) cyclohexane-1,3-dione], the IC50 is below 3 µM.
In the case of `CN(C)C=C1C(=O)CC(c2cccc3c2ccn3C)CC1=O` (stereo not shown) [Compound 295, 2-((dimethylamino)methylene)-5-(1-methyl-1H-indol-4-yl)cyclohexane-1,3-dione] it was 3 to 15 µM; in that of `CN(C)CCNC=C1C(=O)CC(C(=O)Nc2ccc(-c3ccccc3)cc2)CC1=O` (stereo not shown) [Compound 389], below 3 µM.
Take `CC(=O)Nc1ccccc1C1CC(=O)C(=CNCCN(C)C)C(=O)C1` (stereo not shown) [Compound 345, N-(2-(4-(((2-(dimethylamino)ethyl)amino)methylene)-3,5-dioxocyclohexyl)phenyl) acetamide]: the IC50 lay in the range of 3 to 15 µM.
For the compound `CN(C)CCCCNC=C1C(=O)CC(c2ccccc2)CC1=O` (stereo not shown) [Compound 170, 2-(((4-(dimethylamino)butyl)amino)methylene)-5-phenylcyclohexane-1,3-dione], the IC50 was 3 to 15 µM.
The same measure for `O=C1CC(c2c[nH]c3ncccc23)CC(=O)C1=CNCCN1CCN(CCO)CC1` (stereo not shown) [Compound 18, 2-(((2-(4-(2-hydroxyethyl)piperazin-1-yl)ethyl)amino)methylene)-5-(1H-pyrrolo[2,3-b]pyridin-3-yl)cyclohexane-1,3-dione]: 3 to 15 µM; for `CC(c1ccccc1)C1CC(=O)C(=CNCCN2CCN(CCO)CC2)C(=O)C1` (stereo not shown) [Compound 69, 2-(((2-(4-(2-hydroxyethyl)piperazin-1-yl)ethyl)amino)methylene)-5-(1-phenylethyl) cyclohexane-1,3-dione]: 15 to 100 µM; for `C=C(C)C(=O)N1CCN(CCNC=C2C(=O)CC(c3ccc(C)cc3)CC2=O)CC1` (stereo not shown) [Compound 233, 2-(((2-(4-methacryloyl-piperazin-1-yl)ethyl)amino)methylene)-5-(p-tolyl) cyclohexane-1,3-dione]: below 3 µM.
For the compound `CN(C)CCNC=C1C(=O)CC(c2c(F)c(F)c(F)c(F)c2F)CC1=O` (stereo not shown) [Compound 412, 2-(((2-(dimethylamino)ethyl)amino)methylene)-5-(perfluorophenyl) cyclohexane-1,3-dione], the half-inhibitory concentration (IC50) is below 3 µM.
